From patent US12084458B2, “Substituted pyridines, pyridazines, and pyrimidines as TYK2 inhibitors” (Sudo Biosciences Limited, priority 2021, dated 2024)
Read-outs that look alike come from different tables or passages of the source.

Columns and labels:
Assay type in all cases: cell-based
[1] = tested on: HEK-Blue IL-2 reporter cells (IL-2-stimulated STAT5 SEAP reporter); experiment: HEK-Blue IL-2 SEAP reporter assay for determining selectivity; conditions: 4 ng/mL human recombinant IL-2
Method: (§1) Example B-3: HEK-Blue™ IL-2 and IFNγ Reporter Assays for Determining Selectivity
(§2) HEK-Blue™ IL-2 and IFNγ reporter cells with a stably-integrated cytokine receptor and STAT5 or STAT1 express STAT-inducible secreted embryonic alkaline phosphatase (SEAP) reporter gene upon cytokine stimulation. These cells were plated in DMEM (Gibco) containing 10% heat-inactivated FBS (Gibco) and 100 U/mL PenStrep (Gibco) at 37° C. under 5% CO2 conditions for 20-22 hours. The cells were then pretreated with serially diluted test compounds for 60 min prior to stimulation with either 4 ng/mL human recombinant IL-2 (Miltenyl Biotech) or 50 ng/mL human recombinant IFNγ (InvivoGen) for 24 hours. SEAP induction was measured using the QUANTI-Blue™ Solution (InvivoGen) according to the manufacturer's instructions.

[2] = tested on: HEK-Blue IFNγ reporter cells (IFNγ-stimulated STAT1 SEAP reporter); experiment: HEK-Blue IFNγ SEAP reporter assay for determining selectivity; set-up: IFN-γ (SEAP selectivity, IC50): scale not given here; conditions: 50 ng/mL human recombinant IFNγ; for IC50: read-out: IFN-γ (SEAP selectivity, IC50)
Method: as §1, §2

[3] = tested on: HEK-Blue IL-23 cells (IL-23-stimulated STAT3 SEAP reporter; TYK2 JH2); experiment: HEK-Blue IL-23 SEAP reporter assay for profiling TYK2 pseudokinase (JH2) inhibition; conditions: 10 ng/mL human recombinant IL-23, SEAP reporter, read-out: IL23 (TYK2 inhibitory activity, IC50)
Method: (§3) Example B-1: HEK-Blue™ IL-23 and IFNα/β Reporter Assays for Profiling TYK2 Pseudokinase (JH2) Inhibition
(§4) HEK-Blue™ IL-23 and IFNα/β cells with a stably-integrated cytokine receptor and STAT3 or STAT1 express STAT-inducible secreted embryonic alkaline phosphatase (SEAP) reporter gene upon cytokine stimulation. These cells are plated in DMEM (Gibco) containing 10% heat-inactivated FBS (Gibco) and 100 U/mL PenStrep (Gibco) at 37° C. under 5% CO2 conditions for 20-22 hours. The cells are then pretreated with serially diluted test compounds for 60 min prior to stimulation with either 10 ng/mL human recombinant IL-23 (Miltenyl Biotech) or 1 ng/mL human recombinant IFNα (InvivoGen) for 22-24 hours for IL-23 or 16-18 h for IFNα. SEAP induction is measured using the QUANTI Blue™ Solution (InvivoGen) according to the manufacturer's instructions.

[4] = tested on: HEK-Blue IFNα/β cells (IFNα-stimulated STAT1 SEAP reporter; TYK2 JH2); experiment: HEK-Blue IFNα/β SEAP reporter assay for profiling TYK2 pseudokinase (JH2) inhibition; conditions: Homo sapiens, HEK-Blue, 1 ng/mL human recombinant IFNα, read-out: IFNα (TYK2 inhibitory activity, IC50)
Method: as §3, §4

SMILES	IC50 [1]	IFN-γ (SEAP selectivity, IC50) [2]	IC50 [3]	IC50 [4]	IC50 ([2]; Homo sapiens, HEK-Blue)	IC50 [2]
[2H]C([2H])([2H])NC(=O)c1cnc(NC(=O)C2CC2)cc1Nc1cc(F)cc2c1N(C)[C@@H](C)c1nc(C)nn1-2 (single isomer, unassigned) [Compound 110]	> 1000 nM	C/D	< 30 nM	30 to 300 nM		
[2H]C([2H])([2H])NC(=O)c1nnc(NC(=O)C2CC2)cc1Nc1cc(F)cc2c1N(C)[C@@H](C)c1nc(C)nn1-2 (single isomer, unassigned) [Compound 111]	> 1000 nM		< 30 nM	30 to 300 nM	> 1000 nM	
[2H]C([2H])([2H])NC(=O)c1nnc(Nc2cc(C)nc(C)n2)cc1Nc1cccc2c1N(C)Cc1nc(C)nn1-2 [Compound 15, 4-((2,5-dimethyl-4,5-dihydro-[1,2,4]triazolo[1,5-a]quinoxalin-6-yl)amino)-6-((2,6-dimethylpyrimidin-4-yl)amino)-N-(methyl-d3)pyridazine-3-carboxamide]	300 to 1000 nM		< 30 nM	< 30 nM	< 30 nM	
[2H]C([2H])([2H])NC(=O)c1nnc(NC(=O)NC)cc1Nc1cccc2c1N(C)Cc1nc(C)nn1-2 [Compound 19, 4-((2,5-dimethyl-4,5-dihydro-[1,2,4]triazolo[1,5-a]quinoxalin-6-yl)amino)-N-(methyl-d3)-6-(3-methylureido)pyridazine-3-carboxamide]	> 1000 nM		< 30 nM	30 to 300 nM	300 to 1000 nM	
[2H]C([2H])([2H])NC(=O)c1cnc(Nc2cc(C)nc(C)n2)cc1Nc1cccc2c1N(C)Cc1nc(C)nn1-2 [Compound 26, 4-((2,5-dimethyl-4,5-dihydro-[1,2,4]triazolo[1,5-a]quinoxalin-6-yl)amino)-6-((2,6-dimethylpyrimidin-4-yl)amino)-N-(methyl-d3)nicotinamide]	300 to 1000 nM		< 30 nM	< 30 nM	30 to 300 nM	
[2H]C([2H])([2H])NC(=O)c1nnc(NC(=O)C2CC2)cc1Nc1cccc2c1N(C)C([2H])([2H])c1nc(C)nn1-2 [Compound 35, 6-(cyclopropanecarboxamido)-4-((2,5-dimethyl-4,5-dihydro-[1,2,4]triazolo[1,5-a]quinoxalin-6-yl-4,4-d2)amino)-N-(methyl-d3)pyridazine-3-carboxamide]	> 1000 nM		< 30 nM	< 30 nM	30 to 300 nM	
[2H]C([2H])([2H])NC(=O)c1cnc(NC(=O)C2CC2)cc1Nc1cccc2c1N(C)C([2H])([2H])c1nc(C)nn1-2 [Compound 36, 6-(cyclopropanecarboxamido)-4-((2,5-dimethyl-4,5-dihydro-[1,2,4]triazolo[1,5-a]quinoxalin-6-yl-4,4-d2)amino)-N-(methyl-d3)nicotinamide]	> 1000 nM		< 30 nM	< 30 nM	300 to 1000 nM	
[2H]C([2H])([2H])NC(=O)c1nnc(NC(=O)C2CC2)cc1Nc1cccc2c1N(C)C1(CC1)c1nc(C)nn1-2 [Compound 39, 6-(cyclopropanecarboxamido)-4-((2′,5′-dimethyl-5′H-spiro[cyclopropane-1,4′-[1,2,4]triazolo[1,5-a]quinoxalin]-6′-yl)amino)-N-(methyl-d3)pyridazine-3-carboxamide]	> 1000 nM		< 30 nM	< 30 nM	300 to 1000 nM	
[2H]C([2H])([2H])NC(=O)c1cnc(NC(=O)C2CC2)cc1Nc1cccc2c1N(C)C1(CC1)c1nc(C)nn1-2 [Compound 40, 6-(cyclopropanecarboxamido)-4-((2′,5′-dimethyl-5′H-spiro[cyclopropane-1,4′-[1,2,4]triazolo[1,5-a]quinoxalin]-6′-yl)amino)-N-(methyl-d3)nicotinamide]	> 1000 nM		< 30 nM	< 30 nM	> 1000 nM	
[2H]C([2H])([2H])NC(=O)c1nnc(NC(=O)C2CC2)cc1Nc1cccc2c1N(C)[C@H](C([2H])([2H])[2H])c1nc(C)nn1-2 [Compound 44, (R)-6-(cyclopropanecarboxamido)-4-((2,5-dimethyl-4-(methyl-d3)-4,5-dihydro-[1,2,4]triazolo[1,5-a]quinoxalin-6-yl)amino)-N-(methyl-d3)pyridazine-3-carboxamide]	> 1000 nM		< 30 nM	< 30 nM	> 1000 nM	
[2H]C([2H])([2H])NC(=O)c1cnc(NC(=O)C2CC2)cc1Nc1cccc2c1N(C)Cc1nn(C([2H])([2H])[2H])nc1-2 [Compound 49, 6-(cyclopropanecarboxamido)-N-(methyl-d3)-4-((5-methyl-2-(methyl-d3)-4,5-dihydro-2H-[1,2,3]triazolo[4,5-c]quinolin-6-yl)amino)nicotinamide]	> 1000 nM		< 30 nM	< 30 nM	30 to 300 nM	
[2H]C([2H])([2H])NC(=O)c1cnc(NC(=O)NC)cc1Nc1cccc2c1N(C)Cc1nn(C)nc1-2 [Compound 50, 4-((2,5-dimethyl-4,5-dihydro-2H-[1,2,3]triazolo[4,5-c]quinolin-6-yl)amino)-N-(methyl-d3)-6-(3-methylureido)nicotinamide]	> 1000 nM		< 30 nM	< 30 nM	> 1000 nM	
[2H]C([2H])([2H])NC(=O)c1nnc(NC(=O)C2CC2)cc1Nc1cccc2c1N(C)C([2H])([2H])c1nn(C)nc1-2 [Compound 53, 6-(cyclopropanecarboxamido)-4-((2,5-dimethyl-4,5-dihydro-2H-[1,2,3]triazolo[4,5-c]quinolin-6-yl-4,4-d2)amino)-N-(methyl-d3)pyridazine-3-carboxamide]	300 to 1000 nM		< 30 nM	< 30 nM	30 to 300 nM	
[2H]C([2H])([2H])NC(=O)c1nnc(NC(=O)NC)cc1Nc1cccc2c1N(C)C([2H])([2H])c1nn(C)nc1-2 [Compound 54, 4-((2,5-dimethyl-4,5-dihydro-2H-[1,2,3]triazolo[4,5-c]quinolin-6-yl-4,4-d2)amino)-N-(methyl-d3)-6-(3-methylureido)pyridazine-3-carboxamide]	> 1000 nM		< 30 nM	< 30 nM	300 to 1000 nM	
[2H]C([2H])([2H])NC(=O)c1cnc(NC(=O)NC)cc1Nc1cccc2c1N(C)C([2H])([2H])c1nn(C)nc1-2 [Compound 63, 4-((2,5-dimethyl-4,5-dihydro-2H-[1,2,3]triazolo[4,5-c]quinolin-6-yl-4,4-d2)amino)-N-(methyl-d3)-6-(3-methylureido)nicotinamide]	> 1000 nM		< 30 nM	< 30 nM	> 1000 nM	
[2H]C([2H])([2H])NC(=O)c1cnc(NC(=O)NC2CCC2)cc1Nc1cccc2c1N(C)Cc1nn(C)nc1-2 [Compound 64, 6-(3-cyclobutylureido)-4-((2,5-dimethyl-4,5-dihydro-2H-[1,2,3]triazolo[4,5-c]quinolin-6-yl)amino)-N-(methyl-d3)nicotinamide]	> 1000 nM		< 30 nM	30 to 300 nM	> 1000 nM	
[2H]C([2H])([2H])NC(=O)c1cnc(NC(=O)NC2CC2)cc1Nc1cccc2c1N(C)Cc1nn(C)nc1-2 [Compound 66, 6-(3-cyclopropylureido)-4-((2,5-dimethyl-4,5-dihydro-2H-[1,2,3]triazolo[4,5-c]quinolin-6-yl)amino)-N-(methyl-d3)nicotinamide]	> 1000 nM		< 30 nM	30 to 300 nM	> 1000 nM	
[2H]C([2H])([2H])NC(=O)c1nnc(NC(=O)[C@@H]2CC2(F)F)cc1Nc1nccc2c1N(C)Cc1nn(C)nc1-2 [Compound 68, (S)-6-(2,2-difluorocyclopropane-1-carboxamido)-4-((2,5-dimethyl-4,5-dihydro-2H-[1,2,3]triazolo[4,5-c][1,7]naphthyridin-6-yl)amino)-N-(methyl-d3)pyridazine-3-carboxamide]	> 1000 nM		< 30 nM	< 30 nM	300 to 1000 nM	
[2H]C([2H])([2H])NC(=O)c1nnc(NC(=O)[C@H]2CC2(F)F)cc1Nc1nccc2c1N(C)Cc1nn(C)nc1-2 [Compound 69, (R)-6-(2,2-difluorocyclopropane-1-carboxamido)-4-((2,5-dimethyl-4,5-dihydro-2H-[1,2,3]triazolo[4,5-c][1,7]naphthyridin-6-yl)amino)-N-(methyl-d3)pyridazine-3-carboxamide]	> 1000 nM		< 30 nM	30 to 300 nM		> 1000 nM
